Here are results for 14 molecules from patent publication US10519152B2, “Compounds and their use in treating cancer” (AstraZeneca AB, priority 2017, dated 2019).

Broadly, the IC50 is the concentration needed to halve the response being measured.

In this assay the target is T1, recombinant human Estrogen Receptor alpha ligand binding domain, residues 307-554 (ER alpha-LBD (GST)) (Homo sapiens, UniProt P03372).
T1 construct: made in house
T1 sequence (P03372 307-554): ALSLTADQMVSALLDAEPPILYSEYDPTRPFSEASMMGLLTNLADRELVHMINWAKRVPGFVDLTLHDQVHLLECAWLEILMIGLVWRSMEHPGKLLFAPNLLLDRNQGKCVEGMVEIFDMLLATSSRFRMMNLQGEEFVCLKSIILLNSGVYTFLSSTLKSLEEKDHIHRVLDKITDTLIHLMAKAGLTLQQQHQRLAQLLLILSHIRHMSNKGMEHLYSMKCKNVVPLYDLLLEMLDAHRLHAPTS
Kind of assay: ERα binding assay (LanthaScreen TR-FRET competition). The settings on record: TR-FRET competition with Fluormone ES2 tracer, 4 hours at room temperature; single experiment or average of two or more. (Time-resolved FRET reads energy transfer from a long-lived donor to a nearby acceptor.)

Regarding `Cc1ncsc1-c1ccc(CNC(=O)[C@@H]2C[C@@H](O)CN2C(=O)[C@@H](NC(=O)CCCOc2cccc(COc3cc(F)c([C@@H]4c5[nH]c6ccccc6c5C[C@@H](C)N4CC(C)(C)F)c(F)c3)n2)C(C)(C)C)cc1` [Example 162, (2S,4R)-1-((S)-2-(4-((6-((3,5-Difluoro-4-((1R,3R)-2-(2-fluoro-2-methylpropyl)-3-methyl-2,3,4,9-tetrahydro-1H-pyrido[3,4-b]indol-1-yl)phenoxy)methyl)pyridin-2-yl)oxy)butanamido)-3,3-dimethylbutanoyl)-4-hydroxy-N-(4-(4-methylthiazol-5-yl)benzyl)pyrrolidine-2-carboxamide], the IC50 is 1.1 nM.

Turning to `Cc1ncsc1-c1ccc(CNC(=O)[C@@H]2C[C@@H](O)CN2C(=O)[C@@H](NC(=O)COCCOCCCCCOc2cc(F)c([C@@H]3c4[nH]c5ccccc5c4C[C@@H](C)N3CC(F)(F)F)c(F)c2)C(C)(C)C)cc1` [Example 139, (2S,4R)-1-((S)-2-(2-(2-((5-(3,5-Difluoro-4-((1R,3R)-3-methyl-2-(2,2,2-trifluoroethyl)-2,3,4,9-tetrahydro-1H-pyrido[3,4-b]indol-1-yl)phenoxy)pentyl)oxy)ethoxy)acetamido)-3,3-dimethylbutanoyl)-4-hydroxy-N-(4-(4-methylthiazol-5-yl)benzyl)pyrrolidine-2-carboxamide], the half-inhibitory concentration (IC50) came to 0.5 nM.

Regarding `Cc1ncsc1-c1ccc(CNC(=O)[C@@H]2C[C@@H](O)CN2C(=O)[C@@H](NC(=O)COCCCCCOCCCOc2cc(F)c([C@@H]3c4[nH]c5ccccc5c4C[C@@H](C)N3CC(C)(C)F)c(F)c2)C(C)(C)C)cc1` [Example 136, (2S,4R)-1-((S)-2-(2-((5-(3-(3,5-Difluoro-4-((1R,3R)-2-(2-fluoro-2-methylpropyl)-3-methyl-2,3,4,9-tetrahydro-1H-pyrido[3,4-b]indol-1-yl)phenoxy)propoxy)pentyl)oxy)acetamido)-3,3-dimethylbutanoyl)-4-hydroxy-N-(4-(4-methylthiazol-5-yl)benzyl)pyrrolidine-2-carboxamide], the IC50 is 1.2 nM.

`Cc1ncsc1-c1ccc(CNC(=O)[C@@H]2C[C@@H](O)CN2C(=O)[C@@H](NC(=O)COCCOCCOCCOCCOCCOCC(=O)Nc2ccc([C@@H]3c4[nH]c5ccccc5c4C[C@@H](C)N3CC(C)(C)F)cc2)C(C)(C)C)cc1` [Example 54, N^1-(4-((1R,3R)-2-(2-fluoro-2-methylpropyl)-3-methyl-2,3,4,9-tetrahydro-1H-pyrido[3,4-b]indol-1-yl)phenyl)-N^18—((S)-1-((2S,4R)-4-hydroxy-2-(4-(4-methylthiazol-5-yl)benzylcarbamoyl)pyrrolidin-1-yl)-3,3-dimethyl-1-oxobutan-2-yl)-2,5,8,11,14,17-hexaoxaoctadecane-1,18-dicarboxamide, Trifluoroacetic Acid]: the 50% inhibitory concentration (IC50) was determined as 16 nM.

`Cc1ncsc1-c1ccc([C@H](C)NC(=O)[C@@H]2C[C@@H](O)CN2C(=O)[C@@H](NC(=O)COCCCOCCCOc2cc(F)c([C@@H]3c4[nH]c5ccccc5c4C[C@@H](C)N3CC(C)(C)F)c(F)c2)C(C)(C)C)cc1` [Example 152, (2S,4R)-1-((S)-2-(2-(3-(3-(3,5-Difluoro-4-((1R,3R)-2-(2-fluoro-2-methylpropyl)-3-methyl-2,3,4,9-tetrahydro-1H-pyrido[3,4-b]indol-1-yl)phenoxy)propoxy)propoxy)acetamido)-3,3-dimethylbutanoyl)-4-hydroxy-N—((S)-1-(4-(4-methylthiazol-5-yl)phenyl)ethyl)pyrrolidine-2-carboxamide]: the IC50 is 0.5 nM.

As to `Cc1ncsc1-c1ccc(CNC(=O)[C@@H]2C[C@@H](O)CN2C(=O)[C@@H](NC(=O)COCCCCCN(CCOc2cc(F)c([C@@H]3c4[nH]c5ccccc5c4C[C@@H](C)N3CC(C)(C)F)c(F)c2)C(=O)OCc2ccccc2)C(C)(C)C)cc1` [Example 45, Benzyl (2-(3,5-difluoro-4-((1R,3R)-2-(2-fluoro-2-methylpropyl)-3-methyl-2,3,4,9-tetrahydro-1H-pyrido[3,4-b]indol-1-yl)phenoxy)ethyl)(5-(2-(((S)-1-((2S,4R)-4-hydroxy-2-((4-(4-methylthiazol-5-yl)benzyl)carbamoyl)pyrrolidin-1-yl)-3,3-dimethyl-1-oxobutan-2-yl)amino)-2-oxoethoxy)pentyl)carbamate], the IC50 stood at 1.2 nM.

Consider `Cc1ncsc1-c1ccc([C@H](C)NC(=O)[C@@H]2C[C@@H](O)CN2C(=O)[C@@H](NC(=O)COCCOCCCCCOc2cc(F)c([C@@H]3c4[nH]c5ccccc5c4C[C@@H](C)N3CC(C)(C)F)c(F)c2)C(C)(C)C)cc1` [Example 156, (2S,4R)-1-((S)-2-(2-(2-((5-(3,5-Difluoro-4-((1R,3R)-2-(2-fluoro-2-methylpropyl)-3-methyl-2,3,4,9-tetrahydro-1H-pyrido[3,4-b]indol-1-yl)phenoxy)pentyl)oxy)ethoxy)acetamido)-3,3-dimethylbutanoyl)-4-hydroxy-N—((S)-1-(4-(4-methylthiazol-5-yl)phenyl)ethyl)pyrrolidine-2-carboxamide], for which the IC50 was found to be 0.6 nM.

`Cc1ncsc1-c1ccc(CNC(=O)[C@@H]2C[C@@H](O)CN2C(=O)[C@@H](NC(=O)COCCCCCOCCOc2cc(F)c([C@@H]3c4[nH]c5ccccc5c4C[C@@H](C)N3CC(C)(C)F)c(F)c2)C(C)(C)C)cc1` [Example 9, (2S,4R)-1-((S)-2-(2-((5-(2-(3,5-Difluoro-4-((1R,3R)-2-(2-fluoro-2-methylpropyl)-3-methyl-2,3,4,9-tetrahydro-1H-pyrido[3,4-b]indol-1-yl)phenoxy)ethoxy)pentyl)oxy)acetamido)-3,3-dimethylbutanoyl)-4-hydroxy-N-(4-(4-methylthiazol-5-yl)benzyl)pyrrolidine-2-carboxamide]: the IC50 worked out at 0.8 nM.

As to `Cc1ncsc1-c1ccc(CNC(=O)[C@@H]2C[C@@H](O)CN2C(=O)[C@@H](NC(=O)COCCCOCCOc2ccc([C@@H]3c4[nH]c5ccccc5c4C[C@@H](C)N3CC(F)F)nc2)C(C)(C)C)cc1` [Example 26, (2S,4R)-1-((S)-2-(2-(3-(2-((6-((1S,3R)-2-(2,2-Difluoroethyl)-3-methyl-2,3,4,9-tetrahydro-1H-pyrido[3,4-b]indol-1-yl)pyridin-3-yl)oxy)ethoxy)propoxy)acetamido)-3,3-dimethylbutanoyl)-4-hydroxy-N-(4-(4-methylthiazol-5-yl)benzyl)pyrrolidine-2-carboxamide], the IC50 amounted to 25 nM.

With `Cc1ncsc1-c1ccc(CNC(=O)[C@@H]2C[C@@H](O)CN2C(=O)[C@@H](NC(=O)C(F)(F)OCCCCCCOc2cc(F)c([C@@H]3c4[nH]c5ccccc5c4C[C@@H](C)N3CC(C)(C)F)c(F)c2)C(C)(C)C)cc1` [Example 116, (2S,4R)-1-((S)-2-(2-((6-(3,5-Difluoro-4-((1R,3R)-2-(2-fluoro-2-methylpropyl)-3-methyl-2,3,4,9-tetrahydro-1H-pyrido[3,4-b]indol-1-yl)phenoxy)hexyl)oxy)-2,2-difluoroacetamido)-3,3-dimethylbutanoyl)-4-hydroxy-N-(4-(4-methylthiazol-5-yl)benzyl)pyrrolidine-2-carboxamide], the IC50 was 1 nM.

`Cc1ncsc1-c1ccc(CNC(=O)[C@@H]2C[C@@H](O)CN2C(=O)[C@@H](NC(=O)COCCC(F)(F)CCOc2cc(F)c([C@@H]3c4[nH]c5ccccc5c4C[C@@H](C)N3CC(C)(C)F)c(F)c2)C(C)(C)C)cc1` [Example 130, (2S,4R)-1-((S)-2-(2-((5-(3,5-Difluoro-4-((1R,3R)-2-(2-fluoro-2-methylpropyl)-3-methyl-2,3,4,9-tetrahydro-1H-pyrido[3,4-b]indol-1-yl)phenoxy)-3,3-difluoropentyl)oxy)acetamido)-3,3-dimethylbutanoyl)-4-hydroxy-N-(4-(4-methylthiazol-5-yl)benzyl)pyrrolidine-2-carboxamide]: the IC50 turned out to be 0.9 nM.

As to `Cc1ncsc1-c1ccc(CNC(=O)[C@@H]2C[C@@H](O)CN2C(=O)[C@@H](NC(=O)CCCCCCCCOc2cc(F)c([C@@H]3c4[nH]c5ccccc5c4C[C@@H](C)N3CC(C)(C)F)c(F)c2)C(C)(C)C)cc1` [Example 15, (2S,4R)-1-((S)-2-(9-(3,5-Difluoro-4-((1R,3R)-2-(2-fluoro-2-methylpropyl)-3-methyl-2,3,4,9-tetrahydro-1H-pyrido[3,4-b]indol-1-yl)phenoxy)nonanamido)-3,3-dimethylbutanoyl)-4-hydroxy-N-(4-(4-methylthiazol-5-yl)benzyl)pyrrolidine-2-carboxamide], the IC50 turned out to be 1.5 nM.

Turning to `Cc1ncsc1-c1ccc(CNC(=O)C2CC(O)CN2C(=O)C(NC(=O)COCCOc2cc(F)c(C3c4[nH]c5ccccc5c4CC(C)N3CC(C)(C)F)c(F)c2)C(C)(C)C)cc1` [Example 40, (2S,4R)-1-((S)-2-(2-(2-(3,5-Difluoro-4-((1R,3R)-2-(2-fluoro-2-methylpropyl)-3-methyl-2,3,49-tetrahydro-1H-pyrido[3,4-b]indol-1-yl)phenoxy)ethoxy)acetamido)-3,3-dimethylbutanoyl)-4-hydroxy-N-(4-(4-methylthiazol-5-yl)benzyl)pyrrolidine-2-carboxamide], the IC50 turned out to be 1.3 nM.

Take `Cc1ncsc1-c1ccc([C@H](C)NC(=O)[C@@H]2C[C@@H](O)CN2C(=O)[C@@H](NC(=O)C(F)(F)OCCCOCCCOc2cc(F)c([C@@H]3c4[nH]c5ccccc5c4C[C@@H](C)N3CC(C)(C)F)c(F)c2)C(C)(C)C)cc1` [Example 120, (2S,4R)-1-((S)-2-(2-(3-(3-(3,5-Difluoro-4-((1R,3R)-2-(2-fluoro-2-methylpropyl)-3-methyl-2,3,4,9-tetrahydro-1H-pyrido[3,4-b]indol-1-yl)phenoxy)propoxy)propoxy)-2,2-difluoroacetamido)-3,3-dimethylbutanoyl)-4-hydroxy-N—((S)-1-(4-(4-methylthiazol-5-yl)phenyl)ethyl)pyrrolidine-2-carboxamide]: the IC50 amounted to 0.9 nM.
